Results: patent US10047051B2, “Substituted pyridines and method of use” (AbbVie S.á{acute over (.)}r.l., priority 2015, dated 2018)

Assays:
CFTR ΔF508 mutant = molecular target: T1, CFTR ΔF508 mutant (Homo sapiens, UniProt P13569, DEL508-508); assay: YFP-halide influx assay for the CFTR-ΔF508 mutation (CFBE41o- cells); type: cell-based; conditions: forskolin 10.67 μM; for EC50: from (1−F/F0) vs concentration plot
T1 construct: expressed in transfected cells; host or cells: CFBE41o- cells, adenoviral transduction
T1 sequence (P13569 with tags, fused parts or gaps DEL508-508): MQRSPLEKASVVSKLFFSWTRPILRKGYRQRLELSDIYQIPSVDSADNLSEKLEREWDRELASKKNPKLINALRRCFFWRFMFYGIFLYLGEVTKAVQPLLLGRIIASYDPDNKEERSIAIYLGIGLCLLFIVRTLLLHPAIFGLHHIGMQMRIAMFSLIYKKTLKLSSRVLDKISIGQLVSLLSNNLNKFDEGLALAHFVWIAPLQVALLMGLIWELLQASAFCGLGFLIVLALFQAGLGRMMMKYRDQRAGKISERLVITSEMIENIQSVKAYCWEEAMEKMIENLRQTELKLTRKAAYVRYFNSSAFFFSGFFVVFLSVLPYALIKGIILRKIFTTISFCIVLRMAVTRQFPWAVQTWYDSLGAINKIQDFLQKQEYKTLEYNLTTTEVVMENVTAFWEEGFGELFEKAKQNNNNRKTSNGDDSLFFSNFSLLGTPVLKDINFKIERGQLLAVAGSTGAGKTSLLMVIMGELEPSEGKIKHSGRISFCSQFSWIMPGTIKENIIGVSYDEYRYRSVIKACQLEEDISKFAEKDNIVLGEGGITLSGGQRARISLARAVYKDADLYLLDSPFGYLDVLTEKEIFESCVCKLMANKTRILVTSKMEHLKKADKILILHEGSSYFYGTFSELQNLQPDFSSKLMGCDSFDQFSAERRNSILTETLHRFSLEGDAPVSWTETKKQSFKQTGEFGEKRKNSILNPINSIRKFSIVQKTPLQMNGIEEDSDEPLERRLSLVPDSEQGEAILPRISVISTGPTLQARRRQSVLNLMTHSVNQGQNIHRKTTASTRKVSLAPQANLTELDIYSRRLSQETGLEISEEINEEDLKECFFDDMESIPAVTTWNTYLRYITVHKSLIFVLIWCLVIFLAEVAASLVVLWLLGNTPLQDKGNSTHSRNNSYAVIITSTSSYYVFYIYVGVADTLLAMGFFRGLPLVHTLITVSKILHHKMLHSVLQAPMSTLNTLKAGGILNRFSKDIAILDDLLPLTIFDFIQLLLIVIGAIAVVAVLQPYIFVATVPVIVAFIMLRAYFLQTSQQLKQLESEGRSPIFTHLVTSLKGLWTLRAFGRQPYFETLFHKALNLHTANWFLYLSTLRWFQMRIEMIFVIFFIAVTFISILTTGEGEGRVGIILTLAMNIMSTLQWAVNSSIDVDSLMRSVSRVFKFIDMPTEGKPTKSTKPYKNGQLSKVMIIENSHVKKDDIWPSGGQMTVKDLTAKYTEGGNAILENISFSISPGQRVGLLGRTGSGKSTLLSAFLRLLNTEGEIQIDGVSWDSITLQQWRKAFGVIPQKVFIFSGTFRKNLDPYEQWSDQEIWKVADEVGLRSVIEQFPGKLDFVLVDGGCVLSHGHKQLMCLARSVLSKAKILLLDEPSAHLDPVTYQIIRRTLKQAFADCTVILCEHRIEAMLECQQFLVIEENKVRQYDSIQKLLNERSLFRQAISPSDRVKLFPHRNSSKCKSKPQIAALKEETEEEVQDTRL
In short: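 CFBE41o- cells transduced with adenovirus expressing CFTR ΔF508 and halide-sensitive YFP H148Q/I152L/F47L, then held 24 h at 27° C or with a CFTR modulator 24 h at 37° C. Iodide-induced quench recorded 2 min; EC50 from (1−F/F0) at 36 s versus concentration.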

CFTR G551D mutant = molecular target: T2, CFTR G551D mutant (Homo sapiens, UniProt P13569, G551D); assay: YFP-halide influx assay for the CFTR-G551D mutation (HEK293 cells); type: cell-based; conditions: forskolin 10.67 μM
T2 construct: expressed in transfected cells; host or cells: HEK293 cells, reverse transfection with plasmids
T2 sequence (P13569 whole entry G551D): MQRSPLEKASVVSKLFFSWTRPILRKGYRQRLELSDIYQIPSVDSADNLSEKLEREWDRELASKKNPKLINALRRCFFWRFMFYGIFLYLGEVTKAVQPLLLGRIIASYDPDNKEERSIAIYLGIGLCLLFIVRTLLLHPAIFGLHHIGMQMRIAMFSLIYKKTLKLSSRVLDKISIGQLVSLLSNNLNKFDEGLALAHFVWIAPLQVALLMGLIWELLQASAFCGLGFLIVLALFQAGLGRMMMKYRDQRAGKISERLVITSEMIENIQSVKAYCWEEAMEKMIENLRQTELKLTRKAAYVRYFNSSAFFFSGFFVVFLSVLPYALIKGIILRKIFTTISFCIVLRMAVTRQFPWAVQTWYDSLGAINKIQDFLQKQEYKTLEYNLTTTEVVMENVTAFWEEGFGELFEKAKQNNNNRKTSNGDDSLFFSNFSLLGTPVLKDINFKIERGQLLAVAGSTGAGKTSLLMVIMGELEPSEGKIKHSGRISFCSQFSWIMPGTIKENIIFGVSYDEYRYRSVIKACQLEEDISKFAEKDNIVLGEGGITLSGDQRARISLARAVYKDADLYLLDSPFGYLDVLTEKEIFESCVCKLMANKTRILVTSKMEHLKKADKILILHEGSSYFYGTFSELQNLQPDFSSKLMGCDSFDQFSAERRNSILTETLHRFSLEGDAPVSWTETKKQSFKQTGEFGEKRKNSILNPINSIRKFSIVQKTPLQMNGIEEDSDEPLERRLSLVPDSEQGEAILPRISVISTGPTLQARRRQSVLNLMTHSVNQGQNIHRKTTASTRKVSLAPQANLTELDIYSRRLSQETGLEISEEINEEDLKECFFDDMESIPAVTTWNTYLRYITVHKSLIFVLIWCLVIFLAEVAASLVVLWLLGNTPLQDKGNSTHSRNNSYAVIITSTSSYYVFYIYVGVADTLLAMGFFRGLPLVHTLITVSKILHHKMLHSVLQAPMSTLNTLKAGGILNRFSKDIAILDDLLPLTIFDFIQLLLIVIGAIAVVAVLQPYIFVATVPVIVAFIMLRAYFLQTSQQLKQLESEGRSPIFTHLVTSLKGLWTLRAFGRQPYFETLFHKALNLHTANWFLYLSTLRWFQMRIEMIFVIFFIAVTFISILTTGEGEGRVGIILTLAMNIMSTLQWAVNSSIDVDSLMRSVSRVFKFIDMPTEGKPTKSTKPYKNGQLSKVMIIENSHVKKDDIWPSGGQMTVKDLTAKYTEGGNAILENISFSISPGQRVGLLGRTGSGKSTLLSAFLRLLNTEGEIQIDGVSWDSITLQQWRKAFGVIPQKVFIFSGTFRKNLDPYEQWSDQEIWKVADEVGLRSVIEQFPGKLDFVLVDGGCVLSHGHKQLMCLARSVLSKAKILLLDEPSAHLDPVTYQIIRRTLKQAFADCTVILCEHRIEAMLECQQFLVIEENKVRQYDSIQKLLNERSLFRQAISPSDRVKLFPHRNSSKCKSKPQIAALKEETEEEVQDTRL
In short: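 HEK293 cells reverse-transfected with CFTR G551D and halide-sensitive YFP (H148Q/I152L/F47L), expressed 24 h at 37 °C. YFP fluorescence quenching recorded for 7 s after I⁻ injection. Response = 1−F/F0; EC50 derived from 1−F/F0 vs compound concentration.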

CC(C)C[C@H](CO)NC(=O)c1ncc(S(=O)(=O)c2ccc(OC(F)(F)F)cc2)cc1N [Compound 46, 3-amino-N-[(2R)-1-hydroxy-4-methylpentan-2-yl]-5-{[4-(trifluoromethoxy)phenyl]sulfonyl}pyridine-2-carboxamide]
% Activation (CFTR ΔF508 mutant): 41.4%
EC50 (CFTR ΔF508 mutant): 1160 nM
% Activation (CFTR G551D mutant): 3.5%
EC50 (CFTR G551D mutant): > 10000 nM

CC1(C)CN(C(=O)c2ncc(S(=O)(=O)c3ccc(C(F)(F)F)cc3F)cc2N)C1 [Compound 111, (3-amino-5-{[2-fluoro-4-(trifluoromethyl)phenyl]sulfonyl}pyridin-2-yl)(3,3-dimethylazetidin-1-yl)methanone]
% Activation (CFTR ΔF508 mutant): 103.2%
EC50 (CFTR ΔF508 mutant): 22.6 nM
% Activation (CFTR G551D mutant): 99.2%
EC50 (CFTR G551D mutant): 851 nM

CCS(=O)(=O)c1cc(N)c(C(=O)NC[C@H](C)O)nc1C1CC1 [Compound 275, 3-amino-6-cyclopropyl-5-(ethylsulfonyl)-N-[(2S)-2-hydroxypropyl]pyridine-2-carboxamide]
% Activation (CFTR ΔF508 mutant): 68.5%
EC50 (CFTR ΔF508 mutant): > 667 nM
% Activation (CFTR G551D mutant): 4.2%
EC50 (CFTR G551D mutant): > 10000 nM

COCC(O)CCNC(=O)c1ncc(S(=O)(=O)c2ccc(OC(F)(F)F)cc2)cc1N (stereo not drawn) [Compound 54, 3-amino-N-(3-hydroxy-4-methoxybutyl)-5-{[4-(trifluoromethoxy)phenyl]sulfonyl}pyridine-2-carboxamide]
% Activation (CFTR ΔF508 mutant): 89.2%
EC50 (CFTR ΔF508 mutant): 72.9 nM
% Activation (CFTR G551D mutant): 62.6%
EC50 (CFTR G551D mutant): 1660 nM

CN1CCC(O)(CNC(=O)c2ncc(S(=O)(=O)c3ccc(OC(F)(F)F)cc3)cc2N)CC1 [Compound 5, 3-amino-N-[(4-hydroxy-1-methylpiperidin-4-yl)methyl]-5-{[4-(trifluoromethoxy)phenyl]sulfonyl}pyridine-2-carboxamide]
% Activation (CFTR ΔF508 mutant): 14.8%
EC50 (CFTR ΔF508 mutant): > 2000 nM
% Activation (CFTR G551D mutant): 1.7%
EC50 (CFTR G551D mutant): > 10000 nM

CN(Cc1ccc(F)cc1F)S(=O)(=O)c1cnc(C(=O)NCC(O)C(F)(F)F)c(N)c1 (stereo not drawn) [Compound 137, 3-amino-5-[(2,4-difluorobenzyl)(methyl)sulfamoyl]-N-(3,3,3-trifluoro-2-hydroxypropyl)pyridine-2-carboxamide]
% Activation (CFTR ΔF508 mutant): 110.7%
EC50 (CFTR ΔF508 mutant): 3.7 nM
% Activation (CFTR G551D mutant): 69.6%
EC50 (CFTR G551D mutant): 420 nM

Nc1cc(S(=O)(=O)c2ccc(OC(F)(F)F)cc2)cnc1C(=O)NCC(O)CF (stereo not drawn) [Compound 273, 3-amino-N-(3-fluoro-2-hydroxypropyl)-5-{[4-(trifluoromethoxy)phenyl]sulfonyl}pyridine-2-carboxamide]
% Activation (CFTR ΔF508 mutant): 112.0%
EC50 (CFTR ΔF508 mutant): 10.3 nM
% Activation (CFTR G551D mutant): 39.5%
EC50 (CFTR G551D mutant): 1010 nM

COCCOc1nc(C(=O)NC[C@H](C)O)c(N)cc1S(=O)(=O)c1ccc(OC(F)(F)F)cc1 [Compound 288, 3-amino-N-[(2S)-2-hydroxypropyl]-6-(2-methoxyethoxy)-5-{[4-(trifluoromethoxy)phenyl]sulfonyl}pyridine-2-carboxamide]
% Activation (CFTR ΔF508 mutant): 109.0%
EC50 (CFTR ΔF508 mutant): 8.7 nM
% Activation (CFTR G551D mutant): 78.3%
EC50 (CFTR G551D mutant): > 3330 nM

CC(C)(CCO)CNC(=O)c1ncc(S(=O)(=O)c2ccc(OC(F)(F)F)cc2)cc1N [Compound 34, 3-amino-N-(4-hydroxy-2,2-dimethylbutyl)-5-{[4-(trifluoromethoxy)phenyl]sulfonyl}pyridine-2-carboxamide]
% Activation (CFTR ΔF508 mutant): 99.0%
EC50 (CFTR ΔF508 mutant): 91.1 nM
% Activation (CFTR G551D mutant): 70.2%
EC50 (CFTR G551D mutant): 1480 nM

Nc1cc(S(=O)(=O)c2ccc(OC(F)(F)F)cc2)cnc1C(=O)N1CC(N2CCOCC2)C1 [Compound 60, (3-amino-5-{[4-(trifluoromethoxy)phenyl]sulfonyl}pyridin-2-yl)[3-(morpholin-4-yl)azetidin-1-yl]methanone]
% Activation (CFTR ΔF508 mutant): 105.0%
EC50 (CFTR ΔF508 mutant): 67.2 nM
% Activation (CFTR G551D mutant): 71.1%
EC50 (CFTR G551D mutant): 3120 nM

Nc1cc(S(=O)(=O)c2ccc(OC(F)(F)F)cc2)cnc1C(=O)NCC(O)C1CCOCC1 (stereo not drawn) [Compound 35, 3-amino-N-[2-hydroxy-2-(tetrahydro-2H-pyran-4-yl)ethyl]-5-{[4-(trifluoromethoxy)phenyl]sulfonyl}pyridine-2-carboxamide]
% Activation (CFTR ΔF508 mutant): 110.4%
EC50 (CFTR ΔF508 mutant): 84.7 nM
% Activation (CFTR G551D mutant): 78.7%
EC50 (CFTR G551D mutant): 2390 nM

COCCN(C)S(=O)(=O)c1cnc(C(=O)NC[C@H](C)O)c(N)c1 [Compound 277, 3-amino-N-[(2S)-2-hydroxypropyl]-5-[(2-methoxyethyl)(methyl)sulfamoyl]pyridine-2-carboxamide]
% Activation (CFTR ΔF508 mutant): 65.5%
EC50 (CFTR ΔF508 mutant): > 667 nM
% Activation (CFTR G551D mutant): 0.8%
EC50 (CFTR G551D mutant): > 10000 nM

Nc1cc(S(=O)(=O)c2ccc(OC(F)(F)F)cc2F)cnc1C(=O)NC[C@@H]1CCOC1 [Compound 116, 3-amino-5-{[2-fluoro-4-(trifluoromethoxy)phenyl]sulfonyl}-N-[(3S)-tetrahydrofuran-3-ylmethyl]pyridine-2-carboxamide]
% Activation (CFTR ΔF508 mutant): 101.1%
EC50 (CFTR ΔF508 mutant): 27.7 nM
% Activation (CFTR G551D mutant): 50.0%
EC50 (CFTR G551D mutant): 1400 nM

Nc1cc(S(=O)(=O)c2ccc(OC(F)(F)F)cc2F)cnc1C(=O)NC[C@@H](O)C(F)(F)F [Compound 117, 3-amino-5-{[2-fluoro-4-(trifluoromethoxy)phenyl]sulfonyl}-N-[(2R)-3,3,3-trifluoro-2-hydroxypropyl]pyridine-2-carboxamide]
% Activation (CFTR ΔF508 mutant): 107.9%
EC50 (CFTR ΔF508 mutant): 1.7 nM
% Activation (CFTR G551D mutant): 79.8%
EC50 (CFTR G551D mutant): 218 nM

CC(C)(C)C1CCN(S(=O)(=O)c2cnc(C(=O)NCC(O)C(F)(F)F)c(N)c2)CC1 (stereo not drawn) [Compound 197, 3-amino-5-[(4-tert-butylpiperidin-1-yl)sulfonyl]-N-(3,3,3-trifluoro-2-hydroxypropyl)pyridine-2-carboxamide]
% Activation (CFTR ΔF508 mutant): 106.7%
EC50 (CFTR ΔF508 mutant): 3.9 nM
% Activation (CFTR G551D mutant): 76.4%
EC50 (CFTR G551D mutant): 337 nM

CC(C)OC[C@@H](O)CNC(=O)c1ncc(S(=O)(=O)c2ccc(C(F)(F)F)cc2)cc1N [Compound 243, 3-amino-N-[(2S)-2-hydroxy-3-(propan-2-yloxy)propyl]-5-{[4-(trifluoromethyl)phenyl]sulfonyl}pyridine-2-carboxamide]
% Activation (CFTR ΔF508 mutant): 111.5%
EC50 (CFTR ΔF508 mutant): 8.3 nM
% Activation (CFTR G551D mutant): 99.0%
EC50 (CFTR G551D mutant): 639 nM

Nc1cc(S(=O)(=O)N2CC(F)(F)C2)cnc1C(=O)NCC(O)C(F)(F)F (stereo not drawn) [Compound 97, 3-amino-5-[(3,3-difluoroazetidin-1-yl)sulfonyl]-N-(3,3,3-trifluoro-2-hydroxypropyl)pyridine-2-carboxamide]
% Activation (CFTR ΔF508 mutant): 92.9%
EC50 (CFTR ΔF508 mutant): 102 nM
% Activation (CFTR G551D mutant): 23.8%
EC50 (CFTR G551D mutant): > 10000 nM

COCC(O)CNC(=O)c1ncc(S(=O)(=O)N2CCC[C@@H]2C)cc1N (stereo partly drawn) [Compound 276, 3-amino-N-(2-hydroxy-3-methoxypropyl)-5-{[(2S)-2-methylpyrrolidin-1-yl]sulfonyl}pyridine-2-carboxamide]
% Activation (CFTR ΔF508 mutant): 108.0%
EC50 (CFTR ΔF508 mutant): 109 nM
% Activation (CFTR G551D mutant): 13.7%
EC50 (CFTR G551D mutant): > 10000 nM

CC(C)OCC(O)CNC(=O)c1ncc(S(=O)(=O)c2ccc(OC(F)(F)F)cc2F)cc1N (stereo not drawn) [Compound 168, 3-amino-5-{[2-fluoro-4-(trifluoromethoxy)phenyl]sulfonyl}-N-[2-hydroxy-3-(propan-2-yloxy)propyl]pyridine-2-carboxamide]
% Activation (CFTR ΔF508 mutant): 103.5%
EC50 (CFTR ΔF508 mutant): 9.6 nM
% Activation (CFTR G551D mutant): 82.4%
EC50 (CFTR G551D mutant): 539 nM

Nc1cc(S(=O)(=O)c2ccc(C(F)(F)F)cc2F)cnc1C(=O)N1CC(OC(F)F)C1 [Compound 161, (3-amino-5-{[2-fluoro-4-(trifluoromethyl)phenyl]sulfonyl}pyridin-2-yl)[3-(difluoromethoxy)azetidin-1-yl]methanone]
% Activation (CFTR ΔF508 mutant): 97.3%
EC50 (CFTR ΔF508 mutant): 21.5 nM
% Activation (CFTR G551D mutant): 45.8%
EC50 (CFTR G551D mutant): 681 nM

CC(C)(CO)NC(=O)c1ncc(S(=O)(=O)c2ccc(C(F)(F)F)cc2)cc1N [Compound 227, 3-amino-N-(1-hydroxy-2-methylpropan-2-yl)-5-{[4-(trifluoromethyl)phenyl]sulfonyl}pyridine-2-carboxamide]
% Activation (CFTR ΔF508 mutant): 81.0%
EC50 (CFTR ΔF508 mutant): > 667 nM
% Activation (CFTR G551D mutant): 28.1%
EC50 (CFTR G551D mutant): > 10000 nM

Nc1cc(S(=O)(=O)N2CCC(F)(F)CC2)cnc1C(=O)NCC(O)C(F)(F)F (stereo not drawn) [Compound 84, 3-amino-5-[(4,4-difluoropiperidin-1-yl)sulfonyl]-N-(3,3,3-trifluoro-2-hydroxypropyl)pyridine-2-carboxamide]
% Activation (CFTR ΔF508 mutant): 101.0%
EC50 (CFTR ΔF508 mutant): 10.5 nM
% Activation (CFTR G551D mutant): 64.4%
EC50 (CFTR G551D mutant): 1940 nM

CC(C)[C@@H](CO)NC(=O)c1ncc(S(=O)(=O)c2ccc(OC(F)(F)F)cc2)cc1N [Compound 148, 3-amino-N-[(2S)-1-hydroxy-3-methylbutan-2-yl]-5-{[4-(trifluoromethoxy)phenyl]sulfonyl}pyridine-2-carboxamide]
% Activation (CFTR ΔF508 mutant): 88.8%
EC50 (CFTR ΔF508 mutant): 42.5 nM
% Activation (CFTR G551D mutant): 60.2%
EC50 (CFTR G551D mutant): 510 nM

Nc1cc(S(=O)(=O)c2ccc(C(F)(F)F)cc2)cnc1C(=O)N1CC(C(F)(F)F)C1 [Compound 157, (3-amino-5-{[4-(trifluoromethyl)phenyl]sulfonyl}pyridin-2-yl)[3-(trifluoromethyl)azetidin-1-yl]methanone]
% Activation (CFTR ΔF508 mutant): 101.2%
EC50 (CFTR ΔF508 mutant): 33.7 nM
% Activation (CFTR G551D mutant): 28.8%
EC50 (CFTR G551D mutant): > 10000 nM
